“And” between values parts separate entries of the source, which are not always exact repeats. Identical values can stand only once.
What was measured:
Type in all cases: ADME, organism-based
Homo sapiens [1] = test: Evaluation of pharmacokinetic parameters for 14 OH-Clarithromycin following multiple oral doses of Clarithromycin tablets.; design: dose 250 mg, dose 500 mg, dose 1000 mg, route oral; details: in vivo, dosed compound id 21, dosed compound name CLARITHROMYCIN, tissue Plasma
[2] = (§1) Tmax for Clarithromycin evaluated after a single oral dose of 500 mg Clarithromycin tablets to fed and fasted subjects; details: human, in vivo, dietary status Fed, dosed compound id 21, dosed compound name CLARITHROMYCIN, regimen Single dose, tissue Plasma
Homo sapiens [3] = test: as §1; details: in vivo, po, dietary status Fasting, dosed compound id 21, dosed compound name CLARITHROMYCIN, regimen Single dose, tissue Plasma
[4] = (§2) Evaluation of pharmacokinetic parameters for Clarithromycin following multiple oral doses of Clarithromycin tablets.; design: dose 250 mg, dose 500 mg, dose 1000 mg, route oral; details: human, in vivo, dosed compound id 21, dosed compound name CLARITHROMYCIN, route oral
Homo sapiens [5] = test: as §2; design: dose 250 mg, dose 500 mg, dose 1000 mg, route oral; details: in vivo, po, dosed compound id 21, dosed compound name CLARITHROMYCIN, regimen Every 12h; for Excretion: tissue Urine

For `CO[C@]1(C)C[C@@H](C)C(=O)[C@H](C)[C@@H](O)[C@](C)(O)[C@@H](C(C)O)OC(=O)[C@H](C)[C@@H](O[C@H]2C[C@@](C)(OC)[C@@H](O)[C@H](C)O2)[C@H](C)[C@H]1O[C@@H]1O[C@H](C)C[C@H](N(C)C)[C@H]1O` (stereo not given in full), the t1/2 (Homo sapiens [1]; dose 250 mg, regimen Every 12h, route oral) was 5 to 6 h, the Tmax (Homo sapiens [1]; dose 500 mg, gender male and female, regimen Every 24h, route oral) was 6 h and the t1/2 (Homo sapiens [1]; dose 500 mg, regimen Every 12h, route oral) was 7 to 9 h. The Cmax ss (Homo sapiens [1]; gender male and female, regimen Every 24h) was 0.8 µg/mL and the Cmax ss (Homo sapiens [1]; regimen Every 12h) was 0.6 µg/mL and 1 µg/mL.
With `CC[C@H]1OC(=O)[C@H](C)[C@@H](O[C@H]2C[C@@](C)(OC)[C@@H](O)[C@H](C)O2)[C@H](C)[C@@H](O[C@@H]2O[C@H](C)C[C@H](N(C)C)[C@H]2O)[C@](C)(OC)C[C@@H](C)C(=O)[C@H](C)[C@@H](O)[C@]1(C)O` [CLARITHROMYCIN] the Tmax [2] was 2.5 h, the Tmax (Homo sapiens [3]) was 2 h and the dose excreted ([4]; po, at 250 mg, regimen Every 12h, tissue Urine, read-out: Excretion) was 40%. It also gave a Tmax ([4]; dose 500 mg, gender male and female, regimen Every 24h, tissue Plasma) of 5 to 6 h, a half-life ([4]; dose 500 mg, regimen Every 12h, tissue Plasma) of 300 to 420 min and an Excretion (Homo sapiens [5]; at 250 mg) of 20%. The Excretion (Homo sapiens [5]; at 500 mg) was 30%, the t1/2 (Homo sapiens [5]; dose 250 mg, tissue Plasma) was 3 to 4 h and the Cmax ss (Homo sapiens [5]; gender male and female, tissue Plasma) was 2 to 4 µg/mL and 5 to 10 µg/mL. The Cmax ss (Homo sapiens [5]; sampling time1 3 days, tissue Plasma) was 1 to 2 µg/mL and 3 to 4 µg/mL.

From ChEMBL document CHEMBL3832024, “DailyMed|setid=d9db2fd3-a668-4d37-9082-18f6ceb8c3cb | CLARITHROMYCIN - clarithromycin tablet, film coated, extended release|Dispensing Solutions, Inc”
